Results reported in patent US3987055A, “Azasteroids compounds and derivatives” (The Board of Regents for the Oklahoma Agricultural & …, priority 1974, dated 1976).
Several values for one entry are separate records, joined by “and”; a condition that tells them apart may be missing. Equal values may be shown once.

Columns and labels:
KB cells [1] = test: growth inhibition of human tumor KB cell line; format: cell-based; conditions: 10 μg/ml or greater, read-out: concentration at which growth was inhibited
Description: For example, growth of both the human tumor KB* and the mouse L-M** cell lines was inhibited when the cells were grown in media containing 10 μg/ml or greater

L-M cells [2] = test: uptake and incorporation of 3H-thymidine, 3H-uridine and 14C-leucine by L-M cells; format: cell-based, mouse; conditions: 15 μg/ml
Description: ^3 H-Thymidine (10 μCi), or ^3 H-uridine (10 μCi), or ^14 C-leucine (5 .rho.Ci), was added to suspension cultures of L-M cells (8 × 10^5; /ml) in McCoy's 5a modified medium containing either 0 or 15 μg/ml of compound 5c. The cells were incubated at 37° C. One ml samples were removed at varying intervals and the rates of uptake and incorporation were determined from the liner portion of radioactivity versus time curves.

rat testis tubules [3] = test: lysine-U-14C incorporation into protein by rat testis tubules in vitro; format: cell-based
Description: (§1) For these investigations the compounds were diluted in a minimal amount of ethanol and further diluted in saline (0.85%) so that the final concentration was 1 mg/ml. The compounds were placed in solution and gassed under N2 and stored at 5° C until used 2 days later for the in vitro incubation studies. Details of the in vitro incubation procedures may be found in Endocrinology 89:791-800 (1971).
The effects of the compounds on the incorporation of lysine -U-^14 C into trichloroacetic (TCA) precipitable protein of rat testes was investigated by incubating about 200 mg of teased testis tubules from mature rats in a 25 ml Erlenmeyer flask containing 3 ml of Krebs Ringer bicarbonate buffer (pH 7.4), L-lysine-U-^14 C (0.5 μCi; 0.1mM), glucose (10 mM) and 0.25 ml of the azasteroid to be tested. The flasks were incubated for 1 hour at 33° C under 95% O2 : 5% CO2 and the TCA precipitable protein was isolated and an aliquot used to measure radioactivity.
CPM = counts per minute. All compounds were tested in a concentration of […]

KB cells [4] = test: colony and cell morphology of KB cells; format: cell-based, human; conditions: 10 and 20 μg/ml
Description: Differences in cell morphology were also observed. […] Since the difference in staining density could be the result of modification of intracellular structures, such as lysosomes, experiments were performed to determine the effect of the compounds on the permeability of lysosomal membrane.

[5] = tested on: acid phosphatase, KB and L-M cells; test: relative acid phosphatase staining (permeability of lysosomal membrane) of KB and L-M cells; format: cell-based, human (KB) and mouse (L-M); conditions: control experiment with Triton X-100
rat testis tubules [6] = test: glucose oxidation (glucose-U-14C) by rat testis tubules in vitro; format: cell-based
Description: as §1
The effects of these compounds on glucose oxidation by testis tubules was examined by incubating about 200 mg of teased testis tubules from mature rats in a 25 ml Erlenmeyer flask containing 3 ml of Krebs Ringer bicarbonate buffer (pH 7.4), D-glucose-U-^14 C (0.5 μCi; 10mM) and 0.25 ml of the azasteroid (1 mg/ml) to be tested. The flasks were incubated for 2 hours at 33° C under 95% O2 :5% CO2. The reaction was terminated by adding 0.25 ml of 5 N H2 SO4. Carbon dioxide was trapped in 0.25 ml of hydroxide of Hyamine. The radioactivity present in the Hyamine was determined by liquid scintillation spectrometry. This table includes a detailed summary of the results obtained and an average for each compound. […] Thus, the compounds have potential for antifertility activity in the control of wild rodent populations and possibly stray animals such as dogs and cats.
CPM = counts per minute. Glucose-U-^14 C activity was 0.5 millicurie.
All compounds were tested in a concentration of 250 mg per flask.

L-M cells [7] = test: growth inhibition of mouse L-M cell line; format: cell-based
Description: Cells (1 × 10^5 /ml) were added to the "incubated" compound-containing medium.

[8] = tested on: acid phosphatase, KB and L-M cells; test: relative acid phosphatase staining (permeability of lysosomal membrane) of KB and L-M cells; format: cell-based, human (KB) and mouse (L-M); set-up: key to Relative acid phosphatase staining: light: cells showing only a few scattered granules; medium: more dense but distinct isolated granules were still detected; heavy: a more intense staining with fewer discrete granules; conditions: 20 μg/ml
Description: KB and L-M cells were grown on coverslips in medium 199 with 10% calf serum for the 24 hour growth prior to staining in the presence or absence of compound 5c (20 μg/ml) or compound 5d (20 μg/ml). The cells were washed in Hanks' salt solution, incubated at 37° C in Gomori's substrate solution for 1, 2, or 3 hours, washed, treated with a 1% solution of ammonium sulfide, washed, mounted and observed microscopically. Light staining was designated as cells showing only a few scattered granules; medium staining was more dense but distinct isolated granules were still detected; and heavy staining a more intense staining with fewer discrete granules. Heavy staining denotes increased phosphatase activity.
The acid phosphatase activity was measured in KB and L-M cells grown in medium in the presence or absence compound 5c or 5d (20 μg/ml) for 2 or 24 hours prior to staining (Table 2). Quantitative evaluation of the relative staining intensity of the lysosomes was compared in the treated and untreated cells. […] Thus, cells grown in the presence of compound 5c accumulate the phosphatase substrate within the lysosomes much more rapidly than the control or compound 5d treated cells indicating the compounds ability to alter membrane permeability and thus regulate the accumulation of essential metabolites. Control of this cellular capacity permits regulation of cell division so important in cancer chemotherapy. Since the permeation of the substrate is the rate-limiting step in the phosphatase determination, compound 5c produces a modification of the lysosomal membrane which increased the permeability of the lysosome to the substrate. The results also emphasize the difference in biological activity of compound 5c and 5d type molecules which chemically are similar except at C-3. Differences in the biological activity have been observed when the compounds were tested using various bacteria.

KB cells [9] = test: relative plating efficiency of KB cells (colony formation, 7 days); format: cell-based, human
Description: The KB cells were plated in plastic tissue culture dishes and grown in a 5% CO2 gas phase incubator for 7 days. The medium was removed, the plates washed with Hanks' salt solution and the cells stained with a 0.5% aqueous crystal violet solution, rinsed and dried. The colonies were counted and the relative plating efficiency calculated using the number of control colonies as 100 percent.

[10] = individual flask, 250 mg per flask (so in the source), 1 hour, 33° C
[11] = individual flask, 250 mg per flask (so in the source), 2 hours, 33° C

Structure (SMILES): CC12CCN=C1c1ccc3cc(O)ccc3c1CC2 (stereo not shown) [Compound 5c, 1,10,11,11a-tetrahydro-11a-methyl-2H-naphth[1,2-g]indol-7-ol]
- minimal effective concentration (KB cells [1]): ≥ 10 µg/mL
- uptake of radioactive thymidine, uridine, and leucine (L-M cells [2]): inhibited
- Cell Pool (L-M cells [2]; 3H-thymidine): 700 Cpm/8×10^5 cells/hr
- Rate of incorporation (L-M cells [2]; 3H-thymidine): 1,300 Cpm/8×10^5 cells/hr
- Rate of uptake (L-M cells [2]; 3H-thymidine): 2,000 Cpm/8×10^5 cells/hr
- Cell Pool (L-M cells [2]; 3H-uridine): 1,600 Cpm/8×10^5 cells/hr
- Rate of incorporation (L-M cells [2]; 3H-uridine): 1,400 Cpm/8×10^5 cells/hr
- Rate of uptake (L-M cells [2]; 3H-uridine): 3,000 Cpm/8×10^5 cells/hr
- Cell Pool (L-M cells [2]; 14C-leucine): 1,200 Cpm/8×10^5 cells/hr
- Rate of incorporation (L-M cells [2]; 14C-leucine): 2,800 Cpm/8×10^5 cells/hr
- Rate of uptake (L-M cells [2]; 14C-leucine): 4,000 Cpm/8×10^5 cells/hr
- inhibition at 15 µg/mL (L-M cells [2]; Mus musculus, read-out: reduction of radioactivity present in the pool for each of the precursors): ~66%
- AVERAGE OF TWO FLASK lysine incorporation (rat testis tubules [3]; average of two flasks): 1,944 CPM/100 mg tissue
- lysine incorporation into protein per 100 mg (rat testis tubules [3]; [10]): 1,616 CPM/100 mg and 2,273 CPM/100 mg
- lysine incorporation into protein per flask (rat testis tubules [3]; [10]): 3,325 CPM/FLASK and 4,575 CPM/FLASK
- cell division (KB cells [4]): did not divide, or if limited division occurred, only a few small colonies were formed containing a small number of cells
- density of treated cells (KB cells [4]): less uniform density with areas of heavy and light staining
- position of nuclei in treated cells (KB cells [4]): located at the periphery of the cell which contained little cytoplasm
- induction of synthesis of acid phosphatase [5]: does not induce synthesis of acid phosphatase in the cell
- AVERAGE glucose oxidation (rat testis tubules [6]; average of flasks): 8,181 CPM/100 mg TISSUE
- depression of glucose oxidation in vitro (rat testis tubules [6]; in words): depressed glucose oxidation in vitro more than compounds 4 c and 11b
- GLUCOSE OXIDATION per 100 mg (rat testis tubules [6]; [11]): 6,046 CPM/100 mg and 10,317 CPM/100 mg
- GLUCOSE OXIDATION per flask (rat testis tubules [6]; [11]): 12,450 CPM/FLASK and 21,027 CPM/FLASK
- % DEVIATION FROM CONTROL, glucose oxidation (rat testis tubules [6]; versus saline, 120 min): +20.8%
- growth rate versus control (L-M cells [7]; 1 μg/ml): same growth rate as the control
- growth inhibition at 20 μg/ml (L-M cells [7]; 20 μg/ml): marked inhibition
- increase in cell numbers (L-M cells [7]; 20 μg/ml, after three days): no significant increase in cell numbers
- activity at 10 µg/mL (L-M cells [7]; Mus musculus, 96 h, 10 μg/ml, fourth day, read-out: growth as % of the control): 50%
- minimal effective concentration (L-M cells [7]; Mus musculus, L-M cells, 10 μg/ml or greater, read-out: concentration at which growth was inhibited): ≥ 10 µg/mL
- Relative acid phosphatase staining ([8]; 24 h, 1 hour in substrate): light
- Relative acid phosphatase staining ([8]; 24 h, 2 hours in substrate): medium
- Relative acid phosphatase staining ([8]; 24 h, 3 hours in substrate): heavy
- staining reaction versus control ([8]; 24 h, all three substrate incubation times): more intense staining reaction
- staining intensity versus untreated cells ([8]; cells treated for 2 hours): indistinguishable from untreated cells
- effect on the relative plating efficiency (KB cells [9]; 1 μg/ml): little effect
- activity at 1 µg/mL (KB cells [9]; Homo sapiens, KB, 168 h, 1 μg/ml): 91%
- activity at 10 µg/mL (KB cells [9]; Homo sapiens, KB, 168 h, 10 μg/ml): 38%
- cytotoxicity at 10 µg/mL (KB cells [9]; Homo sapiens, KB, 168 h, 10 μg/ml, 7 days, read-out: cells killed): 62%
- activity at 20 µg/mL (KB cells [9]; Homo sapiens, KB, 168 h, 20 μg/ml): 17%
- cytotoxicity at 20 µg/mL (KB cells [9]; Homo sapiens, KB, 168 h, 20 μg/ml, 7 days, read-out: cells killed): 83%
